Values quoted from earlier work in US10357529B2, “Natural formulation for treating hangover” (RVRS, LLC, priority 2016, dated 2019).

Key:
BZ-sites on GABAAR = conditions: competitive; read-out: IC50, inhibition of BZ-site [3H]flunitrazepam binding
GABAAR = conditions: 1 μM; hippocampus and cultured neurons

IC50 (BZ-sites on GABAAR): 4.36 µM
SMILES: O=C1c2c(O)cc(O)cc2O[C@H](c2cc(O)c(O)c(O)c2)[C@H]1O [DHM, Dihydromyricetin]
effect on EtOH-induced potentiation of GABAAR's and GABAAR plasticity (GABAAR): antagonized both acute EtOH-induced potentiation of GABAAR's and EtOH exposure/withdrawal-induced GABAAR plasticity
EtOH consumption in an intermittent voluntary EtOH intake paradigm (rats): greatly reduced EtOH consumption
effect on acute alcohol (EtOH) intoxication and withdrawal signs (rats; 1 mg/kg, i.p. injection): counteracted acute alcohol (EtOH) intoxication
